Among the test systems are HS 578T breast; LXFL 529 NSCLC; T-47D breast; KM20L2 colon; DU-145 prostate; NCI/ADR-RES ovarian; PC-3 prostate; BT-549 breast; MCF7 breast; DMS 273 small cell lung; MDA-MB-435.
Assay in all cases: NCI-60 cell line screen, 48 h

Several values for one entry are separate records, joined by “and”; a condition that tells them apart may be missing. Identical values can stand only once.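 Following 48 hours of exposure in 96-well plates, responses at five concentrations were used to interpolate endpoints linearly. GI50 is the concentration that inhibits growth by half. TGI denotes the concentration required for complete inhibition of growth.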

On to `CC(C)c1ccc(C2NC(=S)NC3=C2c2ccccc2C3=O)cc1` (centres undefined), for which the TGI is 42.1 µM with HS 578T breast; more than 100 µM with LXFL 529 NSCLC; 35.5 µM with T-47D breast; 64.5 µM in the experiment on KM20L2 colon; 31.7 µM in the experiment with DU-145 prostate; 33.3 µM in the experiment on NCI/ADR-RES ovarian. The TGI with PC-3 prostate is 23.5 µM; in the experiment on BT-549 breast it was 31.6 µM; with MCF7 breast, 23.1 µM; in the experiment with DMS 273 small cell lung, more than 100 µM; in the experiment with MDA-MB-435, 21.4 µM.

Consider `Cc1ccc(S(=O)(=O)N/N=C(\c2nc3ccc([N+](=O)[O-])cc3[nH]c2=O)C(O)c2ccc([N+](=O)[O-])cc2)cc1` (centres undefined), for which the TGI with LXFL 529 NSCLC, in the experiment on KM20L2 colon and with DMS 273 small cell lung was more than 100 µM in each case.

On to `O=C1CC(c2c(-c3ccccc3)[nH]c3ccccc23)C(=O)N1c1ccccc1` (centres undefined), for which the TGI in the experiment on LXFL 529 NSCLC, in the experiment on KM20L2 colon and in the experiment with DMS 273 small cell lung was more than 100 µM each time.

Turning to `O=c1c2ccccc2[nH]c2c(O)ccc(O)c12`, the TGI in the experiment with LXFL 529 NSCLC was 28.5 µM; in the experiment on KM20L2 colon it was more than 100 µM; in the experiment with DMS 273 small cell lung, 30.5 µM.

Turning to `C/C(=N\NC(=O)C[N+](C)(C)C)c1sc(-c2cccnc2)nc1C`, the TGI in the experiment on LXFL 529 NSCLC, in the experiment with KM20L2 colon and in the experiment with DMS 273 small cell lung was more than 100 µM in each case.

On to `S=c1o[nH]c(-c2ccccc2)c1C=Nc1ccccc1`, for which the TGI with LXFL 529 NSCLC and in the experiment on DMS 273 small cell lung was more than 100 µM in each case.

For `CCc1cccc(C(C)C)c1NC(=O)CCl`, the TGI in the experiment with LXFL 529 NSCLC, in the experiment on KM20L2 colon and in the experiment with DMS 273 small cell lung was more than 100 µM in each case.

For the compound `O=[P+](O)c1ccccn1`, the TGI in the experiment on LXFL 529 NSCLC, in the experiment with KM20L2 colon and with DMS 273 small cell lung was more than 100 µM throughout.

Turning to `Cc1cccc(C)c1NC(=O)CCc1nnc2s/c(=C\c3ccc(N(C)C)cc3)c(=O)n12`, the TGI in the experiment on LXFL 529 NSCLC, in the experiment on KM20L2 colon and with DMS 273 small cell lung was more than 100 µM each time.

Turning to `Cc1cc(-c2nnc(/C=C/c3ccc4c(c3)OCO4)o2)n[nH]1`, the GI50 was 9.64 µM in the experiment on HS 578T breast; 22 µM in the experiment with T-47D breast; 9.17 µM with DU-145 prostate; 7.33 µM in the experiment with NCI/ADR-RES ovarian; 7.87 µM with PC-3 prostate; 6.78 µM with BT-549 breast. Further, the values for the GI50 in the experiment with MCF7 breast and in the experiment with MDA-MB-435 were 15.1 µM and 0.915 µM, respectively. The TGI with HS 578T breast was 47 µM; in the experiment with T-47D breast it was more than 50 µM; in the experiment on DU-145 prostate, 29.4 µM; in the experiment with NCI/ADR-RES ovarian, 21.4 µM; in the experiment on PC-3 prostate, more than 50 µM; in the experiment on BT-549 breast it was 39.3 µM. Further, the values for the TGI in the experiment on MCF7 breast and in the experiment with MDA-MB-435 were more than 50 µM and 2.52 µM, respectively.

`COc1cc(Cl)cc(-c2nn(-c3cccc(NC(=O)Nc4cccc(C(F)(F)F)c4)c3)cc2-c2ccncc2)c1`: the GI50 with HS 578T breast was 4.06 µM; in the experiment on T-47D breast, 1.23 µM; with DU-145 prostate, 2.61 µM; in the experiment on NCI/ADR-RES ovarian, 1.65 µM; in the experiment on PC-3 prostate, 0.417 µM; with BT-549 breast, 2.22 µM. Further, the results for the GI50 in the experiment on MCF7 breast and with MDA-MB-435 were 1.48 µM and 1.74 µM, respectively. The TGI with HS 578T breast was more than 100 µM; in the experiment with T-47D breast it was 6.99 µM; in the experiment with DU-145 prostate it was more than 100 µM; in the experiment with NCI/ADR-RES ovarian it was 7.81 µM; with PC-3 prostate, 3.2 µM; with BT-549 breast, 5.6 µM. Moreover, the figures for the TGI in the experiment on MCF7 breast and in the experiment with MDA-MB-435 were 7.57 µM and 3.82 µM, respectively.

For `CNCC/C=C1\c2cc3c(cc2-c2c1c1cc(OC)c(OC)cc1c(=O)n2C)OCO3`, the GI50 was 8.88 µM in the experiment with HS 578T breast; 4.19 µM in the experiment with T-47D breast; 0.428 µM in the experiment on DU-145 prostate; 3.74 µM in the experiment with NCI/ADR-RES ovarian; 0.534 µM in the experiment on PC-3 prostate; 3.66 µM with BT-549 breast. Moreover, the GI50 in the experiment on MCF7 breast was 0.161 µM; in the experiment with MDA-MB-435, 0.836 µM. The TGI was 38.9 µM in the experiment with HS 578T breast; 25.5 µM with T-47D breast; 8.84 µM in the experiment on DU-145 prostate; more than 45.2 µM in the experiment on NCI/ADR-RES ovarian; 10.3 µM in the experiment with PC-3 prostate; 22.5 µM with BT-549 breast. Moreover, the TGI was more than 36.9 µM in the experiment on MCF7 breast and 15 µM with MDA-MB-435.

In the case of `CCCCCCCCCC[C@@H](O)[C@@H]1CC[C@@H]([C@@H]2CC[C@@H]([C@@H](O)CCCCCCCCCC[C@H](O)CC3=CC(C)OC3=O)O2)O1` (some centres undefined), the GI50 in the experiment with HS 578T breast is 14 µM; in the experiment with DU-145 prostate it was 23.5 µM; in the experiment with MCF7 breast it was 3.52 µM; in the experiment on MDA-MB-435, 4.04 µM. Further, the TGI was 25.6 µM with LXFL 529 NSCLC; 40.4 µM in the experiment with T-47D breast; more than 100 µM in the experiment on KM20L2 colon; more than 100 µM with DU-145 prostate; 5.34 µM and 35.8 µM in the experiment on NCI/ADR-RES ovarian; 51.6 µM in the experiment with BT-549 breast. In addition, the TGI is more than 100 µM with MCF7 breast and 13.5 µM in the experiment on DMS 273 small cell lung.

Take `O=C1CC[C@H](N2Cc3c(OCc4ccc(CN5CCOCC5)cc4)cccc3C2=O)C(=O)N1`: the GI50 in the experiment on HS 578T breast was more than 100 µM; with T-47D breast, more than 100 µM; in the experiment on DU-145 prostate, more than 100 µM; with NCI/ADR-RES ovarian it was more than 100 µM; in the experiment on PC-3 prostate, more than 100 µM; with BT-549 breast, 98.9 µM. Besides, the GI50 in the experiment with MCF7 breast and in the experiment on MDA-MB-435 was more than 100 µM in each case. For the same compound, the TGI in the experiment with HS 578T breast, with T-47D breast, in the experiment with DU-145 prostate, in the experiment with NCI/ADR-RES ovarian, in the experiment on PC-3 prostate and with BT-549 breast was more than 100 µM each time. Moreover, the TGI with MCF7 breast and in the experiment on MDA-MB-435 was more than 100 µM in each case.

In the case of `CCOC(=O)C(=O)Nc1cc(Cl)c(Cl)cc1Cl`, the TGI in the experiment with LXFL 529 NSCLC, in the experiment on KM20L2 colon and in the experiment with DMS 273 small cell lung was more than 100 µM throughout.

In the case of `N#CC1=C(N)NC(=S)NC1c1ccc(-c2ccc(-c3nc4ccccc4o3)cc2)s1` (centres undefined), the GI50 was 16.1 µM with HS 578T breast; 15.4 µM with T-47D breast; 17.6 µM with DU-145 prostate; 12.1 µM with NCI/ADR-RES ovarian; 9.78 µM with PC-3 prostate; 17.5 µM in the experiment with BT-549 breast. In addition, the GI50 in the experiment on MCF7 breast is 6.7 µM; in the experiment with MDA-MB-435, 16.5 µM. Also, the TGI with HS 578T breast was 45.1 µM; in the experiment on T-47D breast it was more than 50 µM; in the experiment on DU-145 prostate it was more than 50 µM; with NCI/ADR-RES ovarian it was 30.1 µM; in the experiment with PC-3 prostate it was more than 50 µM; in the experiment with BT-549 breast it was 47.6 µM. For the same compound, the TGI with MCF7 breast turned out to be 19.2 µM; in the experiment with MDA-MB-435 it was 48.5 µM.

These data come from PubChem BioAssay (NCI).
